From patent US20170182047A9, “Post-Translational Regulation of Catalytic Activities of Cytochrome P450 46A1 and Uses Thereof” (The Board of Regents of the University of Texas System, priority 2007, published 2017)
Where two headings read alike, the source gives them in different places.

What was measured:
CYP46A1 [1] = biological target: T1, CYP46A1 (Homo sapiens, UniProt Q9Y6A2); assay: In vitro IC50 and Ki for CYP46A1-catalysed hydroxylation; type: biochemical; set-up: Recombinant full-length human CYPs 46A1 and 27A1 and bovine CYP11A1 were expressed and purified; made in house; details: for IC50: 5.4 μM cholesterol
T1 sequence (Q9Y6A2 whole entry): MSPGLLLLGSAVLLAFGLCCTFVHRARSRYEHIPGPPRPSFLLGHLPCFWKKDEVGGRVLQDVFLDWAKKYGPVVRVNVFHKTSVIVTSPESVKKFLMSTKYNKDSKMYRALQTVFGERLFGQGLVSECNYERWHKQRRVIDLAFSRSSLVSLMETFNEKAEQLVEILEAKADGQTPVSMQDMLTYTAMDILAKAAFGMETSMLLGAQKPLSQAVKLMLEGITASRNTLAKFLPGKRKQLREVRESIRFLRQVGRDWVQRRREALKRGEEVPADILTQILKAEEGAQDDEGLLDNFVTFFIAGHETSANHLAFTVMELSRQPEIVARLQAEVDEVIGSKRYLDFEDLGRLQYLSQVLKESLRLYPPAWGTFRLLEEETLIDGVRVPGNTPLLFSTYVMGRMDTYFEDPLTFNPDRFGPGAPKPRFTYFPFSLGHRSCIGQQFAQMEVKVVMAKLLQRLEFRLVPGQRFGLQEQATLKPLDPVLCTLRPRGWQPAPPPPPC
Description: Cholesterol hydroxylation by CYP46A1 was assayed for 20 min at 37° C. in 1 ml of 50 mM KPi, pH 7.2, containing 100 mM NaCl, 0.02% Cymal 6, 40 μg dilauroylglycerol-3-phosphatidylcholine and 2U of catalase. […] The enzymatic reaction was initiated by NADPH (final 1 mM) and terminated by vortexing with 2 ml of CH2Cl2. The organic phase was isolated, evaporated, dissolved in methanol, and subjected to HPLC. […] In addition, the Ki for cholesterol 24-hydroxylation was estimated assuming a model of competitive inhibition.

full-length CYP46A1 = full-length CYP46A1 (Homo sapiens, UniProt Q9Y6A2); assay: Inhibition/stimulation of cholesterol hydroxylase activity at fixed 43 μM test compound; type: biochemical; details: 2.7 μM cholesterol, 43 μM compound; FIG. 4A-4C
Sequence of full-length CYP46A1 (Q9Y6A2 whole entry): as above

CYP27A1 = biological target: T2, CYP27A1 (Homo sapiens, UniProt Q02318); assay: Spectral binding assay of antifungal azoles; details: up to 100 μM
T2 construct: Recombinant full-length human CYPs 46A1 and 27A1 and bovine CYP11A1 were expressed and purified; made in house
T2 sequence (Q02318 34-531): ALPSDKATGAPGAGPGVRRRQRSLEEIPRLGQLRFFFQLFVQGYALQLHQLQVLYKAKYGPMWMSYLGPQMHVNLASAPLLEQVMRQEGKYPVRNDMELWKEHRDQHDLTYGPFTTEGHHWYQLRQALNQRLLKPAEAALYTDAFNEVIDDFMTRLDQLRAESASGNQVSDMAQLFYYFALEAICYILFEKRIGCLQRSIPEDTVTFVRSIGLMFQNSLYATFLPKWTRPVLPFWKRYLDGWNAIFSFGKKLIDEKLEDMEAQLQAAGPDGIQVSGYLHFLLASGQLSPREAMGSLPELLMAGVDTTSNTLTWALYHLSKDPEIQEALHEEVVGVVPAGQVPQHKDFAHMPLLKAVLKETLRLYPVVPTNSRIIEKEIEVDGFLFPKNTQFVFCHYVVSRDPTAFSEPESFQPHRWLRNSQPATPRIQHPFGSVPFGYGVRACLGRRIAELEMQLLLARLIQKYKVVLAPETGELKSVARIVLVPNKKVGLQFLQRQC
Description: (§1) Titrations of CYP46A1 were carried out in 50 mM potassium phosphate buffer (KPi), pH 7.2, containing 100 mM NaCl and 0.02% Cymal 6. CYPs 11A1 and 27A1 were in 50 mM KPi without any additives. Antifungal drugs were added from 0.2-5 mM stocks in 50% methanol. The apparent Kd and maximal absorbance change were estimated by non-linear least squares fitting using the quadratic form of the single-site binding equation (9).

CYP11A1 = biological target: T3, CYP11A1 (Bos taurus, UniProt P00189); assay: Spectral binding assay of antifungal azoles; set-up: species or system bovine
T3 construct: Recombinant full-length human CYPs 46A1 and 27A1 and bovine CYP11A1 were expressed and purified; made in house
T3 sequence (P00189 40-520): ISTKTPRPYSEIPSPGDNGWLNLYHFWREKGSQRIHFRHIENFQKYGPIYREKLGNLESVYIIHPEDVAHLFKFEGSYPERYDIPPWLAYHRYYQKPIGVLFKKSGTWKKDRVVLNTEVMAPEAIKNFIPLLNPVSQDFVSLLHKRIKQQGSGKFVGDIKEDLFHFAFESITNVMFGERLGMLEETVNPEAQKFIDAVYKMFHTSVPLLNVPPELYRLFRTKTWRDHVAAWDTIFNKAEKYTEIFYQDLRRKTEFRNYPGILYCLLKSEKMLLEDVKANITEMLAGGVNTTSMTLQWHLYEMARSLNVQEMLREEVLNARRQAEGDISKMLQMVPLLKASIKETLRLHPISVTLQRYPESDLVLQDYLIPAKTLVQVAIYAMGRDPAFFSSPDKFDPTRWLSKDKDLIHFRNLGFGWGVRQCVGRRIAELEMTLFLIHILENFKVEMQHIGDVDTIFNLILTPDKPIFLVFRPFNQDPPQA
Description: as §1

[2] = Brain levels of voriconazole; type: in vivo, C57/B6 J mice; details: after 5 daily intraperitoneal injections (60 mg/kg body weight)
Description: (§2) The mice were sacrificed by cervical dislocation.
Voriconazole was determined in serum and brain homogenates after the extraction with chloroform/methanol (2:1, v:v) and ethanol (10%, v/v, final), respectively. Voriconazole extract (100 μL) was then mixed with 200 μL acetonitrile, centrifuged at 10,000 g for 10 min, and 1 μL of the supernatant injected onto a Phenomenex Luna C18 3 μm column (100×2 mm) connected to the Agilent 1100 liquid chromatography-mass spectrometry system with an autosampler and solvent degasser. Gradient elution was with initial 35% B increasing to 100% B in 5 min (A=1% acetonitrile with 25 mM formic acid; B=100% acetonitrile with 25 mM formic acid). A structure analogue (UK115794, Pfizer Ltd) was used as internal standard. Ions were monitored in a positive mode at m/z 350 (voriconazole) and m/z 348 (internal standard).

CYP46A1 [3] = biological target: T1, CYP46A1; assay: Spectral binding assay of antifungal azoles; set-up: Recombinant full-length human CYPs 46A1 and 27A1 and bovine CYP11A1 were expressed and purified; made in house; details: 0.3 μM purified P450; read-out: estimated Kd
Description: as §1

[4] = tested on: genes involved in cholesterol homeostasis; assay: mRNA expression in mouse brain after voriconazole; type: in vivo, C57/B6 J mice; details: 5 daily i.p. injections 60 mg/kg
Description: as §2
Total RNA was obtained from brain and liver tissue using Trizol (Invitrogen, Carlsbad, Calif.). cDNA was synthesised from 2 μg of total RNA using Capacity cDNA ReverseTranscription Kit (Applied Biosystems, Foster City, Calif.). Steady-state mRNA levels were estimated using Taqman probes (primer sequences available on request). All assays were run on an ABI Prism 7000 Sequense Detection System (Applied Biosystems; Foster City, Calif.). Estimation of a relative gene expression was performed using the comparative threshold cycle method, using hypoxathine-guanine phosphoribosyl transferase as endogenous control.

C[C@@H](c1ncncc1F)[C@](O)(Cn1cncn1)c1ccc(F)cc1F [voriconazole]
IC50 (CYP46A1 [1]; read-out: IC50 for cholesterol 24-hydroxylation): 22 nM
Ki (CYP46A1 [1]; estimated, competitive inhibition, cholesterol equal to the Km, read-out: Ki for cholesterol 24-hydroxylation): 11 nM
IC50 (CYP46A1 [1]; read-out: IC50 for 25- and 27-hydroxylations of 24S-hydroxycholesterol): 47 nM
inhibition of cholesterol hydroxylation (in words) (full-length CYP46A1): significant inhibition
spectral response (CYP27A1): only a very weak spectral shift was observed
Kd (CYP11A1; 0.3 μM purified P450, read-out: apparent Kd): 4.8 µM
binding weaker than that to CYP46A1 (CYP11A1; CYP11A1 vs CYP46A1): ~100 fold
level of voriconazole in the brain [2]: 43+8 μg/g wet weight
concentration at 5 days ([2]; male, C57/B6 J, mouse, brain, read-out: level of voriconazole in the brain): 123 µM
Kd (CYP46A1 [3]): 50 nM
effect on HMG CoA reductase mRNA levels [4]: significant suppressive effect
effect on expression of CYP46A1 mRNA [4]: no significant effect
effect on expression of HMG CoA synthase mRNA [4]: no significant effect
